# Measured values reported in patent US8952024B2, “Herbicidal pyrimidone derivatives” (E I du Pont de Nemours and Company, priority 2009, dated 2015).
# What was measured:
# Format in all cases: in vivo
# [1] = tested on: barnyardgrass (Echinochloa crus-galli); experiment: Test A pre-/postemergence plant response; conditions: for Barnyardgrass plant response rating: visual injury, 0 to 100 scale (0 no effect, 100 complete control), approx. ten days
# In short: (§1)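 Injury scores (0, no effect; 100, complete control) come from visual comparison with untreated controls roughly ten days post-treatment. Test chemicals in a surfactant-containing non-phytotoxic solvent were applied as a directed soil spray preemergence and to one- to two-leaf seedlings postemergence.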
# corn (Zea mays) = experiment: Test A pre-/postemergence plant response; conditions: for Corn plant response rating: visual injury, 0 to 100 scale (0 no effect, 100 complete control), approx. ten days
# In short: as §1
# [2] = tested on: giant foxtail (Setaria faberii); experiment: Test A pre-/postemergence plant response; conditions: for Foxtail, Giant plant response rating: visual injury, 0 to 100 scale (0 no effect, 100 complete control), approx. ten days
# In short: as §1
# [3] = tested on: large crabgrass (Digitaria sanguinalis); experiment: Test A pre-/postemergence plant response; conditions: for Crabgrass, Large plant response rating: visual injury, 0 to 100 scale (0 no effect, 100 complete control), approx. ten days
# In short: as §1
# [4] = tested on: morningglory (Ipomoea spp.); experiment: Test A pre-/postemergence plant response; conditions: for Morningglory plant response rating: visual injury, 0 to 100 scale (0 no effect, 100 complete control), approx. ten days
# In short: as §1
# [5] = tested on: pigweed (Amaranthus retroflexus); experiment: Test A pre-/postemergence plant response; conditions: for Pigweed plant response rating: visual injury, 0 to 100 scale (0 no effect, 100 complete control), approx. ten days
# In short: as §1
# [6] = tested on: velvetleaf (Abutilon theophrasti); experiment: Test A pre-/postemergence plant response; conditions: for Velvetleaf plant response rating: visual injury, 0 to 100 scale (0 no effect, 100 complete control), approx. ten days
# In short: as §1
# [7] = tested on: wheat (Triticum aestivum); experiment: Test A pre-/postemergence plant response; conditions: for Wheat plant response rating: visual injury, 0 to 100 scale (0 no effect, 100 complete control), approx. ten days
# In short: as §1
# [8] = tested on: barnyardgrass (Echinochloa crus-galli); experiment: Test B flooded paddy test; conditions: for Plant response rating, Flood, Barnyardgrass: 250 g ai/ha, flooded paddy test, visual rating on 0 to 100 scale (0 no effect, 100 complete control) after 13 to 15 days; for Plant response rating, Barnyardgrass: Flood (flooded paddy test), 13 to 15 days; for Barnyardgrass plant response rating: Flood, 31 g ai/ha, scale 0 to 100 (0 no effect, 100 complete control)
# In short: (§2)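 2-leaf seedlings; pots flooded 3 cm over soil at treatment; cpd dosed into floodwater, depth kept constant. Greenhouse 13–15 d. Visual rating vs untreated controls, 0 = no effect, 100 = complete control.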
# [9] = tested on: ducksalad (Heteranthera limosa); experiment: Test B flooded paddy test; conditions: for Plant response rating, Flood, Ducksalad: 250 g ai/ha, flooded paddy test, visual rating on 0 to 100 scale (0 no effect, 100 complete control) after 13 to 15 days; for Plant response rating, Ducksalad: Flood (flooded paddy test), 13 to 15 days; for Ducksalad plant response rating: Flood, 31 g ai/ha, scale 0 to 100 (0 no effect, 100 complete control)
# In short: as §2
# rice (Oryza sativa) = experiment: Test B flooded paddy test; conditions: for Plant response rating, Flood, Rice: 250 g ai/ha, flooded paddy test, visual rating on 0 to 100 scale (0 no effect, 100 complete control) after 13 to 15 days; for Plant response rating, Rice: Flood (flooded paddy test), 13 to 15 days; for Rice plant response rating: Flood, 31 g ai/ha, scale 0 to 100 (0 no effect, 100 complete control)
# In short: as §2
# [10] = tested on: umbrella sedge (Cyperus difformis); experiment: Test B flooded paddy test; conditions: for Plant response rating, Flood, Sedge, Umbrella: 250 g ai/ha, flooded paddy test, visual rating on 0 to 100 scale (0 no effect, 100 complete control) after 13 to 15 days; for Plant response rating, Sedge, Umbrella: Flood (flooded paddy test), 13 to 15 days; for Sedge, Umbrella plant response rating: Flood, 31 g ai/ha, scale 0 to 100 (0 no effect, 100 complete control)
# In short: as §2
# [11] = Postemergence, 125 g ai/ha, 0 to 100 scale where 0 is no effect and 100 is complete control
# [12] = Preemergence, 125 g ai/ha, 0 to 100 scale, 0 = no effect, 100 = complete control
# [13] = Preemergence, 500 g ai/ha, 0 to 100 scale, 0 = no effect, 100 = complete control
# [14] = 62 g ai/ha, scale of 0 to 100 where 0 is no effect and 100 is complete control
# [15] = 125 g ai/ha, scale 0 to 100, 0 is no effect, 100 is complete control
smiles,measurement,setting,value
C=CCCn1c(-c2ccccc2)ncc(C(=O)C2=C(O)CCCC2=O)c1=O [Compound 214],"Plant response rating, Barnyardgrass",[1]; [11],80
same,Barnyardgrass plant response rating,"[1]; Postemergence, 500 g ai/ha",90
same,"Plant response rating, Barnyardgrass",[1]; [12],10
same,"Plant response rating, Barnyardgrass",[1]; [13],60
same,"Plant response rating, Corn",corn (Zea mays); [11],0
same,Corn plant response rating,"corn (Zea mays); Postemergence, 500 g ai/ha",30
same,"Plant response rating, Corn",corn (Zea mays); [12],0
same,"Plant response rating, Corn",corn (Zea mays); [13],0
same,"Plant response rating, Foxtail, Giant",[2]; [11],50
same,"Foxtail, Giant plant response rating","[2]; Postemergence, 500 g ai/ha",90
same,"Plant response rating, Foxtail, Giant",[2]; [12],30
same,"Plant response rating, Foxtail, Giant",[2]; [13],70
same,"Plant response rating, Crabgrass, Large",[3]; [11],80
same,"Crabgrass, Large plant response rating","[3]; Postemergence, 500 g ai/ha",90
same,"Plant response rating, Crabgrass, Large",[3]; [12],30
same,"Plant response rating, Crabgrass, Large",[3]; [13],90
same,"Plant response rating, Morningglory",[4]; [11],80
same,Morningglory plant response rating,"[4]; Postemergence, 500 g ai/ha",100
same,"Plant response rating, Morningglory",[4]; [12],0
same,"Plant response rating, Morningglory",[4]; [13],80
same,"Plant response rating, Pigweed",[5]; [11],90
same,Pigweed plant response rating,"[5]; Postemergence, 500 g ai/ha",100
same,"Plant response rating, Pigweed",[5]; [12],70
same,"Plant response rating, Pigweed",[5]; [13],90
same,"Plant response rating, Velvetleaf",[6]; [11],100
same,Velvetleaf plant response rating,"[6]; Postemergence, 500 g ai/ha",100
same,"Plant response rating, Velvetleaf",[6]; [12],90
same,"Plant response rating, Velvetleaf",[6]; [13],100
same,"Plant response rating, Wheat",[7]; [11],0
same,Wheat plant response rating,"[7]; Postemergence, 500 g ai/ha",20
same,"Plant response rating, Wheat",[7]; [12],0
same,"Plant response rating, Wheat",[7]; [13],30
same,"Plant response rating, Flood, Barnyardgrass",[8],20
same,"Plant response rating, Barnyardgrass",[8]; [14],0
same,"Plant response rating, Flood, Ducksalad",[9],95
same,"Plant response rating, Ducksalad",[9]; [14],0
same,"Plant response rating, Flood, Rice",rice (Oryza sativa),15
same,"Plant response rating, Rice",rice (Oryza sativa); [14],0
same,"Plant response rating, Flood, Sedge, Umbrella",[10],85
same,"Plant response rating, Sedge, Umbrella",[10]; [14],0
C#Cc1ccc(-c2ncc(C(=O)C3=C(O)CCCC3=O)c(=O)n2C2CCCCC2)cc1 [Compound 216],"Plant response rating, Barnyardgrass",[1]; [11],10
same,Barnyardgrass plant response rating,"[1]; Postemergence, 500 g ai/ha",90
same,"Plant response rating, Barnyardgrass",[1]; [12],0
same,"Plant response rating, Barnyardgrass",[1]; [13],20
same,"Plant response rating, Corn",corn (Zea mays); [11],0
same,Corn plant response rating,"corn (Zea mays); Postemergence, 500 g ai/ha",0
same,"Plant response rating, Corn",corn (Zea mays); [12],0
same,"Plant response rating, Corn",corn (Zea mays); [13],20
same,"Plant response rating, Foxtail, Giant",[2]; [11],30
same,"Foxtail, Giant plant response rating","[2]; Postemergence, 500 g ai/ha",70
same,"Plant response rating, Foxtail, Giant",[2]; [12],0
same,"Plant response rating, Foxtail, Giant",[2]; [13],60
same,"Plant response rating, Crabgrass, Large",[3]; [11],40
same,"Crabgrass, Large plant response rating","[3]; Postemergence, 500 g ai/ha",80
same,"Plant response rating, Crabgrass, Large",[3]; [12],0
same,"Plant response rating, Crabgrass, Large",[3]; [13],80
same,"Plant response rating, Morningglory",[4]; [11],70
same,Morningglory plant response rating,"[4]; Postemergence, 500 g ai/ha",90
same,"Plant response rating, Morningglory",[4]; [12],0
same,"Plant response rating, Morningglory",[4]; [13],30
same,"Plant response rating, Pigweed",[5]; [11],90
same,Pigweed plant response rating,"[5]; Postemergence, 500 g ai/ha",90
same,"Plant response rating, Pigweed",[5]; [12],0
same,"Plant response rating, Pigweed",[5]; [13],50
same,"Plant response rating, Velvetleaf",[6]; [11],90
same,Velvetleaf plant response rating,"[6]; Postemergence, 500 g ai/ha",100
same,"Plant response rating, Velvetleaf",[6]; [12],0
same,"Plant response rating, Velvetleaf",[6]; [13],30
same,"Plant response rating, Wheat",[7]; [11],20
same,Wheat plant response rating,"[7]; Postemergence, 500 g ai/ha",30
same,"Plant response rating, Wheat",[7]; [12],0
same,"Plant response rating, Wheat",[7]; [13],0
same,"Plant response rating, Flood, Barnyardgrass",[8],0
same,"Plant response rating, Barnyardgrass",[8]; [14],0
same,"Plant response rating, Barnyardgrass",[8]; [15],0
same,Barnyardgrass plant response rating,[8],0
same,"Plant response rating, Flood, Ducksalad",[9],95
same,"Plant response rating, Ducksalad",[9]; [14],90
same,"Plant response rating, Ducksalad",[9]; [15],90
same,Ducksalad plant response rating,[9],50
same,"Plant response rating, Flood, Rice",rice (Oryza sativa),0
same,"Plant response rating, Rice",rice (Oryza sativa); [14],0
same,"Plant response rating, Rice",rice (Oryza sativa); [15],0
same,Rice plant response rating,rice (Oryza sativa),0
same,"Plant response rating, Flood, Sedge, Umbrella",[10],100
same,"Plant response rating, Sedge, Umbrella",[10]; [14],65
same,"Plant response rating, Sedge, Umbrella",[10]; [15],80
same,"Sedge, Umbrella plant response rating",[10],0
CCCn1c(-c2cccs2)ncc(C(=O)c2cnn(CC)c2O)c1=O [Compound 221],"Plant response rating, Barnyardgrass",[1]; [11],10
same,Barnyardgrass plant response rating,"[1]; Postemergence, 500 g ai/ha",20
same,"Plant response rating, Barnyardgrass",[1]; [12],0
same,"Plant response rating, Barnyardgrass",[1]; [13],0
same,"Plant response rating, Corn",corn (Zea mays); [11],0
same,Corn plant response rating,"corn (Zea mays); Postemergence, 500 g ai/ha",20
same,"Plant response rating, Corn",corn (Zea mays); [12],0
same,"Plant response rating, Corn",corn (Zea mays); [13],0
same,"Plant response rating, Foxtail, Giant",[2]; [11],0
same,"Foxtail, Giant plant response rating","[2]; Postemergence, 500 g ai/ha",10
same,"Plant response rating, Foxtail, Giant",[2]; [12],0
same,"Plant response rating, Foxtail, Giant",[2]; [13],10
same,"Plant response rating, Crabgrass, Large",[3]; [11],10
same,"Crabgrass, Large plant response rating","[3]; Postemergence, 500 g ai/ha",20
same,"Plant response rating, Crabgrass, Large",[3]; [12],0
same,"Plant response rating, Crabgrass, Large",[3]; [13],10
same,"Plant response rating, Morningglory",[4]; [11],10
same,Morningglory plant response rating,"[4]; Postemergence, 500 g ai/ha",20
same,"Plant response rating, Morningglory",[4]; [12],0
same,"Plant response rating, Morningglory",[4]; [13],0
same,"Plant response rating, Pigweed",[5]; [11],40
same,Pigweed plant response rating,"[5]; Postemergence, 500 g ai/ha",70
same,"Plant response rating, Pigweed",[5]; [12],0
same,"Plant response rating, Pigweed",[5]; [13],60
same,"Plant response rating, Velvetleaf",[6]; [11],80
same,Velvetleaf plant response rating,"[6]; Postemergence, 500 g ai/ha",80
same,"Plant response rating, Velvetleaf",[6]; [12],20
same,"Plant response rating, Velvetleaf",[6]; [13],30
same,"Plant response rating, Wheat",[7]; [11],0
same,Wheat plant response rating,"[7]; Postemergence, 500 g ai/ha",0
same,"Plant response rating, Wheat",[7]; [12],0
same,"Plant response rating, Wheat",[7]; [13],0
same,"Plant response rating, Flood, Barnyardgrass",[8],20
same,"Plant response rating, Barnyardgrass",[8]; [14],0
same,"Plant response rating, Barnyardgrass",[8]; [15],0
same,Barnyardgrass plant response rating,[8],0
same,"Plant response rating, Flood, Ducksalad",[9],70
same,"Plant response rating, Ducksalad",[9]; [14],65
same,"Plant response rating, Ducksalad",[9]; [15],70
same,Ducksalad plant response rating,[9],20
same,"Plant response rating, Flood, Rice",rice (Oryza sativa),15
same,"Plant response rating, Rice",rice (Oryza sativa); [14],0
same,"Plant response rating, Rice",rice (Oryza sativa); [15],0
same,Rice plant response rating,rice (Oryza sativa),0
same,"Plant response rating, Flood, Sedge, Umbrella",[10],75
same,"Plant response rating, Sedge, Umbrella",[10]; [14],60
same,"Plant response rating, Sedge, Umbrella",[10]; [15],75
same,"Sedge, Umbrella plant response rating",[10],0
